# Active and inactive are the calls of the source. The rule behind the calls is not given here.
# Experiments:
# [1] = Apparent volume of distributed in Sprague-Dawley rat at 5 mg/kg, iv; format: ADME, organism-based; conditions: in vivo, read-out: Vz
# [2] = biological target: T1, 5-hydroxytryptamine receptor 2A (Homo sapiens, UniProt P28223); assay: Displacement of [125I](+/-)DOI from human recombinant 5-HT2A receptor expressed in HEK293 cells at 100 nM measured after 60 to 90 mins by radioligand completion assay relative to control; format: cell-based; conditions: time 60-90 min
# [3] = biological target: T2, 5-hydroxytryptamine receptor 3A (Homo sapiens) (UniProt P46098); assay: Displacement of [3H]BRL43694 from human recombinant 5-HT3 receptor expressed in CHO cells at 100 nM measured after 120 mins by radioligand completion assay relative to control; format: cell-based
# T2 sequence (whole entry): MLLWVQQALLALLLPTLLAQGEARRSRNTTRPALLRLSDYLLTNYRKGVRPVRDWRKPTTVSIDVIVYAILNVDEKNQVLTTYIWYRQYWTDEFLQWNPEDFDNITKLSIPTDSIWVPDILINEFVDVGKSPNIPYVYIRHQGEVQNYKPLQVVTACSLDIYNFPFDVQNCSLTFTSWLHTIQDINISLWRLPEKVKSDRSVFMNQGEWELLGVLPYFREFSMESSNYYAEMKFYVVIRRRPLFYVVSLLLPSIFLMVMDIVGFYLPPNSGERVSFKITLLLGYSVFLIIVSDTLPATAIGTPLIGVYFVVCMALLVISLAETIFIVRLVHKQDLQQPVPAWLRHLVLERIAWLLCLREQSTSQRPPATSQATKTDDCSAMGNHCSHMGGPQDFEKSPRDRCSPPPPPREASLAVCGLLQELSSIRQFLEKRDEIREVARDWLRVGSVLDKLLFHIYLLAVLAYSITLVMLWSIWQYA
# [4] = biological target: T3, 5-hydroxytryptamine receptor 1A (Homo sapiens) (UniProt P08908); assay: Displacement of [3H][…] from human recombinant 5-HT1A receptor expressed in cells at 10 uM measured after 60 to 90 mins by radioligand completion assay relative to control; format: cell-based; conditions: time 60-90 min
# T3 sequence (whole entry): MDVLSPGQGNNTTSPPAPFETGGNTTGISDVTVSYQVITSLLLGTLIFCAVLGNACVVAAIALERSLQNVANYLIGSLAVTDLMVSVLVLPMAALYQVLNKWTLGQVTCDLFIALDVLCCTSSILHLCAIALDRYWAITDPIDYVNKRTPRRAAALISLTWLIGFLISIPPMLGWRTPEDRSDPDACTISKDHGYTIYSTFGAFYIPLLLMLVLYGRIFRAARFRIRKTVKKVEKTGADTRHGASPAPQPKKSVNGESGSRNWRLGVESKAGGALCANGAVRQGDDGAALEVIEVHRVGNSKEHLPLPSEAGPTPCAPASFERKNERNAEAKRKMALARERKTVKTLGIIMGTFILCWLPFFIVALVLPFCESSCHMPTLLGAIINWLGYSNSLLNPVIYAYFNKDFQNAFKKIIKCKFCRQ
# [5] = AUCinfinity in Sprague-Dawley rat at 5 mg/kg, iv; format: ADME, organism-based; set-up: time infinity, dose 5 mg/kg, route iv; conditions: in vivo
# [6] = biological target: T4, 5-hydroxytryptamine receptor 2C (Homo sapiens) (UniProt P28335); assay: Displacement of [125I](+/-)DOI from human recombinant 5-HT2C receptor expressed in CHO cells at 100 nM measured after 60 mins by radioligand completion assay relative to control; format: cell-based
# T4 sequence (whole entry): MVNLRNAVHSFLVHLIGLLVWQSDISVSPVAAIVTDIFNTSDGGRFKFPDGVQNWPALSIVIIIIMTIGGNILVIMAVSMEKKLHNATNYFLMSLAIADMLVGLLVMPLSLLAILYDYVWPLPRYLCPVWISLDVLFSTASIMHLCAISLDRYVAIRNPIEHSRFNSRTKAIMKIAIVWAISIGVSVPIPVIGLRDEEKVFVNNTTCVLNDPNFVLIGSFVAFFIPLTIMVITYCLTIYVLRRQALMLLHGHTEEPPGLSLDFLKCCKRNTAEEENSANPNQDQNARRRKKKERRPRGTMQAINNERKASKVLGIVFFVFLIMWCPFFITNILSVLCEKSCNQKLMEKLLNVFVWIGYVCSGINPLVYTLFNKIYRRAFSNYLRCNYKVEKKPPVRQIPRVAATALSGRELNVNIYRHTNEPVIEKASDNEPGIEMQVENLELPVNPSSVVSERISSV
# [7] = system: Rattus norvegicus; format: functional; conditions: Sprague-Dawley, route ip, time 15 min
# [8] = biological target: T5, 5-hydroxytryptamine receptor 2C (Homo sapiens, UniProt P28335); assay: biochemical
# T5 sequence (P28335 whole entry): T4 sequence (whole entry)
# [9] = biological target: T6, 5-hydroxytryptamine receptor 2B (Homo sapiens, UniProt P41595); assay: Displacement of [125I](+/-)DOI from human recombinant 5-HT2B receptor expressed in CHO cells at 100 nM measured after 60 mins by radioligand completion assay relative to control; format: cell-based
# [10] = biological target: T3, 5-hydroxytryptamine receptor 1A (Homo sapiens); assay: Displacement of [3H][…] from human recombinant 5-HT1A receptor expressed in cells at 100 nM measured after 60 to 90 mins by radioligand completion assay relative to control; format: cell-based; conditions: time 60-90 min
# [11] = biological target: T6, 5-hydroxytryptamine receptor 2B; assay: biochemical
# [12] = biological target: T2, 5-hydroxytryptamine receptor 3A (Homo sapiens); assay: Displacement of [3H]BRL43694 from human recombinant 5-HT3 receptor expressed in CHO cells at 10 uM measured after 120 mins by radioligand completion assay relative to control; format: cell-based
# [13] = biological target: T1, 5-hydroxytryptamine receptor 2A; assay: Displacement of [3H]LSD from human recombinant 5-HT2A receptor expressed in HEK cells by radioligand completion assay relative to control; format: cell-based
# [14] = biological target: 5-hydroxytryptamine receptor 1B (Rattus norvegicus) (UniProt P28564); assay: Displacement of [125I]CYP from rat cerebral cortex 5-HT1B receptor at 10 uM measured after 120 mins by radioligand completion assay relative to control; format: tissue-based
# [15] = biological target: T6, 5-hydroxytryptamine receptor 2B; assay: Displacement of [125I](+/-)DOI from human recombinant 5-HT2B receptor expressed in CHO cells at 10 uM measured after 60 mins by radioligand completion assay relative to control; format: cell-based
# [16] = biological target: T1, 5-hydroxytryptamine receptor 2A; assay: Displacement of [125I](+/-)DOI from human recombinant 5-HT2A receptor expressed in HEK293 cells at 10 uM measured after 60 to 90 mins by radioligand completion assay relative to control; format: cell-based; conditions: time 60-90 min
# [17] = biological target: T7, 5-hydroxytryptamine receptor 1A (Homo sapiens, UniProt P08908); assay: Displacement of [3H][…] from human recombinant 5-HT1A receptor expressed in CHO cells measured after 60 to 90 mins by radioligand completion assay relative to control; format: cell-based
# T7 sequence (P08908 whole entry): T3 sequence (whole entry)
# [18] = Clearence in Sprague-Dawley rat at 5 mg/kg, iv; format: ADME, organism-based; conditions: in vivo
# [19] = biological target: T4, 5-hydroxytryptamine receptor 2C (Homo sapiens); assay: Displacement of [125I](+/-)DOI from human recombinant 5-HT2C receptor expressed in CHO cells at 10 uM measured after 60 mins by radioligand completion assay relative to control; format: cell-based
# [20] = biological target: T7, 5-hydroxytryptamine receptor 1A; assay: Displacement of [3H][…] from human recombinant 5-HT1A receptor expressed in HEK cells measured after 60 to 90 mins by radioligand completion assay relative to control; format: cell-based
# [21] = system: Rattus norvegicus; format: functional; conditions: Sprague-Dawley, route iv
# [22] = biological target: T6, 5-hydroxytryptamine receptor 2B; assay: Displacement of [3H]LSD from human recombinant 5-HT2B receptor expressed in CHO cells by radioligand completion assay relative to control; format: cell-based
# [23] = biological target: 5-hydroxytryptamine receptor 7 (Homo sapiens, UniProt P34969); assay: biochemical
# [24] = AUCinfinity in Sprague-Dawley rat at […], iv; format: ADME, organism-based; conditions: in vivo
# [25] = system: Rattus norvegicus; format: functional; conditions: Sprague-Dawley, route iv; remark: listed apart in the source
# [26] = biological target: T7, 5-hydroxytryptamine receptor 1A; assay: Displacement of [3H]5-CT from human recombinant 5-HT1A receptor expressed in CHO cells measured after 60 to 90 mins by radioligand completion assay relative to control; format: cell-based
# [27] = system: Rattus norvegicus; format: functional, organism-based; conditions: Sprague-Dawley, dose 1.0 mg/kg, route ip, time 15.0 min
# T1 sequence (P28223 whole entry): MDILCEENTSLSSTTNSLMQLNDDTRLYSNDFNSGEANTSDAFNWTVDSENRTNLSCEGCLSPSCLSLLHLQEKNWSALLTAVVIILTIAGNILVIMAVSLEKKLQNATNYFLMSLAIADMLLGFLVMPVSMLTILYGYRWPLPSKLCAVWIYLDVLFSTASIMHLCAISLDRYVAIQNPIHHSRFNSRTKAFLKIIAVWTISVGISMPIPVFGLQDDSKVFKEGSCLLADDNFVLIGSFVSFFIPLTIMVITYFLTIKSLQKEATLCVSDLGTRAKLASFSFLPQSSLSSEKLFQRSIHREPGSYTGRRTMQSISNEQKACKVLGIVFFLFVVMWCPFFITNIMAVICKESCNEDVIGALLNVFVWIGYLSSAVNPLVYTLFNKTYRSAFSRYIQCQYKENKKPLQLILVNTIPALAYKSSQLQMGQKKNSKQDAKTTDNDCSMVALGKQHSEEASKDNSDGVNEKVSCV
# Sequence of 5-hydroxytryptamine receptor 1B (Rattus norvegicus) (P28564 whole entry): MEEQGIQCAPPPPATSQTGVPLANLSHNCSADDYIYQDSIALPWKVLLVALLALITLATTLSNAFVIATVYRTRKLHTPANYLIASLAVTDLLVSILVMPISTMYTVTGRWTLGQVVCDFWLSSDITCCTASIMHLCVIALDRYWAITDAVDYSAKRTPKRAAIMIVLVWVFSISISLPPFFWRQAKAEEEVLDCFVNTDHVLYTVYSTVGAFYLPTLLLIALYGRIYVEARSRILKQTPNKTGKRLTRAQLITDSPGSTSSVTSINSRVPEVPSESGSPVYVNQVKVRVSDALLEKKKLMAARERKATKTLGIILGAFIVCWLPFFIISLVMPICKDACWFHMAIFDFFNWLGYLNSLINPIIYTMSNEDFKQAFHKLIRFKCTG
# T6 sequence (P41595 whole entry): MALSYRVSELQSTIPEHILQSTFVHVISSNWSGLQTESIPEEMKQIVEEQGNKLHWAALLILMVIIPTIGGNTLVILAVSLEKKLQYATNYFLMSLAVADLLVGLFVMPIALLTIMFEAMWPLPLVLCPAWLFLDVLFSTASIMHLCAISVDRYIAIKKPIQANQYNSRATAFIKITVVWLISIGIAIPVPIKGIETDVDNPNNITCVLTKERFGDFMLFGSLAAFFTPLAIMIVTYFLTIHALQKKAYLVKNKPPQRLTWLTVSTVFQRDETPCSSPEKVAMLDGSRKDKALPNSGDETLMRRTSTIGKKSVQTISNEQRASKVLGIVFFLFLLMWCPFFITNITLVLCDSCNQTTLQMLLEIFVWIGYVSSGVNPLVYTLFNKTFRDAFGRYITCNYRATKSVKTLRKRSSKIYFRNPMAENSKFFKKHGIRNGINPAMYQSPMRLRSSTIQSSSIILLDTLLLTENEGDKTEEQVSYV
# Sequence of 5-hydroxytryptamine receptor 7 (P34969 whole entry): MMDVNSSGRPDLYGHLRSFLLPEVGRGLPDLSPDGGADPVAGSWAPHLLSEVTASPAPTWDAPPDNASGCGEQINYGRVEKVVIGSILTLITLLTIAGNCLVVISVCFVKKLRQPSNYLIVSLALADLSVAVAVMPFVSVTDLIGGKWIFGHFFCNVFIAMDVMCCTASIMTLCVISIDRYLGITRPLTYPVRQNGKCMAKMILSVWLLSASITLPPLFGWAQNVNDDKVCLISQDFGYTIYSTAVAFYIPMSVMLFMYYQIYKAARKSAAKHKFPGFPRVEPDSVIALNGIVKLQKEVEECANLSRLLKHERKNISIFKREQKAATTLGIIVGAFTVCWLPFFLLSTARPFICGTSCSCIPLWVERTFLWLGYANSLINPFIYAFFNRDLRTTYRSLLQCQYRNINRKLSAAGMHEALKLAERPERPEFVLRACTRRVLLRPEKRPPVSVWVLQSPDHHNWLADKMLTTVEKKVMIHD
SMILES,Activity [2],Activity [3],Activity ([4]; filed as agonist),Activity [6],ED50 [7],Ki [8],Activity [9],Activity [10],Ki [11],Activity [12],Ki [13],Activity [14],Activity ([15]; filed as agonist),Ki [17],Activity [19],ED50 [21],other results
CC[C@@H]1CN2CCc3c([nH]c4cccc(OC)c34)[C@@H]2C[C@@H]1/C(=C\OC)C(=O)OC,-0.9%,-9.1%,76.7%,-8.2%,26.8 mg/kg,> 10 µM,23%,9.7%,1.26 µM,-12.7%,5.01 µM,8.2%,90.7%,5.88 µM,14.7%,–,Vd [1]: 8 L/kg; AUC [5]: 849.8 ng·h/mL; Activity ([16]; filed as agonist): 49.9%; CL [18]: 21.7 mL/min/kg
C=C[C@H]1CN2CCc3c([nH]c4cccc(OC)c34)[C@@H]2C[C@@H]1/C(=C\OC)C(=O)OC,–,–,–,–,[…],1.77 µM,–,–,0.0831 µM,–,0.815 µM,–,–,0.0718 µM,–,5.45 mg/kg,Ki [20]: 0.032 µM; Ki [22]: 0.02 µM; Ki [23]: 0.87 µM
CC[C@H]1CN2CCc3c([nH]c4cccc(O)c34)[C@@H]2C[C@@H]1/C(=C\OC)C(=O)OC,–,–,–,–,–,–,–,–,0.508 µM,–,–,–,–,0.294 µM,–,–,–
C=C[C@H]1CN2CCc3c([nH]c4cccc(O)c34)[C@@H]2C[C@@H]1/C(=C\OC)C(=O)OC,–,–,–,–,–,–,–,–,0.336 µM,–,–,–,–,0.0977 µM,–,–,–
CC[C@H]1CN2CCc3c([nH]c4cccc(OC)c34)[C@@H]2C[C@@H]1/C(=C\OC)C(=O)OC,2.8%,11.3%,98.7%,–,9.1 mg/kg,5.43 µM,–,–,0.108 µM,1.5%,1.32 µM,30.4%,–,0.0955 µM,–,5.92 mg/kg,Ki [20]: 0.0385 µM; Ki [22]: 0.023 µM; Activity ([10]; filed as agonist): 58.9%; AUC(0-inf) [24]: 495 ng·h/mL; ED50 [25]: 11.6 mg/kg; Activity ([19]; filed as agonist): 77.9%
COC(=O)C1=COC[C@H]2CN3CCc4c([nH]c5ccccc45)[C@@H]3C[C@H]12,5.1%,-2.5%,95.2%,-12.5%,–,–,6.2%,33.2%,–,1.8%,–,–,89.3%,–,-5.3%,–,Activity [16]: 36.5%
CC[C@@H]1CN2CC[C@@]3(O)C(=Nc4cccc(OC)c43)[C@@H]2C[C@@H]1/C(=C\OC)C(=O)OC,-0.2%,8.2%,–,-18.3%,–,–,-1.4%,3.1%,–,19.5%,–,-0.8%,–,–,-13.9%,–,Activity [4]: 1.2%; Activity [15]: 12.4%; Activity [16]: 3.9%
CC[C@@H]1CN2CCc3c([nH]c4cccc(OC)c34)[C@H]2C[C@@H]1/C(=C\OC)C(=O)OC,1.5%,11.1%,–,0.4%,–,–,-3.4%,-4.8%,–,0.7%,–,16.8%,47.1%,–,14.3%,–,Activity [4]: 33.3%; Activity ([16]; filed as agonist): 68.1%
O=C1c2ccccc2S(=O)(=O)N1CCCCN1CCN(c2ncccn2)CC1 [IPSAPIRONE],–,–,–,–,0.431 mg/kg,–,–,–,–,–,–,–,–,–,–,3.41 mg/kg,Ki [26]: 0.0497 µM; Activity [27]: inactive; ED50 [25]: 7.68 mg/kg
